doi:10.1101/2025.11.04.686469, “Discovery of Host-Directed Small Molecules with Broad Anti-Leishmanial Efficacy” (bioRxiv, 2025)

Columns and labels:
[1] = test system: intracellular L. donovani amastigotes; test: Luminescent-based evaluation of intracellular anti-leishmanial activity in THP-1 macrophages; type: cell-based, Leishmania donovani; conditions: intracellular Leishmania donovani in THP1 macrophages, luminescence assay (Supplemental Table 2); read-out: Lum IC50
In short: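 PMA-differentiated THP-1 macrophages (150 nM, 72 h) were infected 18 h with firefly luciferase-expressing L. donovani LV82 promastigotes, then washed. Infected cells were treated with compounds at 0.1-10 μM for 72 h. Surviving intracellular amastigotes were quantified by firefly luciferase luminescence after cell lysis and 10 min substrate incubation at room temperature.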

[2] = test system: THP-1 macrophages; test: Effect of compounds on host cell viability (MTT); type: cell-based; conditions: read-out: 24h LC50; THP1 macrophages, 24-hour incubation, MTT assay (Supplemental Table 2)
In short: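 THP-1 cells were differentiated with 150 nM PMA for 72 h, then exposed to compounds at 1–50 μM for 24 h; selected compounds were also run at 1–300 μM for 72 h. MTT at 0.5 mg/mL was added for 2 h at 37 °C, and formazan absorbance was read at 560 nm minus 670 nm.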

FC(F)(F)c1ccc(-c2ccc(-c3cc(C(F)(F)F)nn3-c3ccc(N4CCC(NCc5ccc(Cl)c(C(F)(F)F)c5)CC4)cc3)cc2)cc1 [Compound 120]
IC50 [1]: > 10 µM
CC50 [2]: > 50 µM

NC1CN(c2ccc(-n3nc(C(F)(F)F)cc3-c3ccc(-c4ccc(C(F)(F)F)cc4)cc3)cc2)C1 [Compound 172]
IC50 [1]: > 10 µM
CC50 [2]: > 50 µM

Oc1ccc(CN2CCC(Nc3ccc(-n4nc(C(F)(F)F)cc4C4CCCCC4)cc3)C2)cc1 (stereo not drawn) [Compound 368]
IC50 [1]: 1.6 µM
CC50 [2]: 12.1 µM

O=C(c1ccc(-n2cc(C(F)(F)F)nc2-c2ccc(-c3ccc(C(F)(F)F)cc3)cc2)c(F)c1)N1CCC(NCc2cccc(F)c2)C1 (stereo not drawn) [Compound 178]
IC50 [1]: > 10 µM
CC50 [2]: > 50 µM

FC(F)(F)c1cc(C2CCCCC2)nn1-c1ccc(Br)cc1 [Compound 216]
IC50 [1]: > 10 µM
CC50 [2]: > 50 µM

NCCCCCOc1ccc(CN2CCC(Oc3ccc(-n4nc(C(F)(F)F)cc4C4CCCCC4)cc3)CC2)cc1 [Compound 432]
IC50 [1]: 2.9 µM
CC50 [2]: 5.6 µM

NCCN1CCC(Oc2ccc(-n3nc(C(F)(F)F)cc3C3CCCCC3)cc2)CC1 [Compound 416]
IC50 [1]: 1.3 µM
CC50 [2]: 18.2 µM

NCC(=O)N1CC(Nc2ccc(-n3nc(C(F)(F)F)cc3-c3ccc(-c4ccc(C(F)(F)F)cc4)cc3)cc2)C1 [Compound 118]
IC50 [1]: 2.6 µM
CC50 [2]: 6.2 µM

FC(F)(F)c1cn(-c2ccc(N3CCNCC3)cc2)c(-c2ccc(Cl)cc2)n1 [Compound 51]
IC50 [1]: 8.2 µM
CC50 [2]: 25.7 µM

CC(C)(C)OC(=O)NC1CCN(c2ccc(-n3nc(C(F)(F)F)cc3C3CCCCC3)cc2)C1 (stereo not drawn) [Compound 230]
IC50 [1]: > 10 µM
CC50 [2]: 9.5 µM

CCCCCCCCNc1ccc(-n2nc(C(F)(F)F)cc2-c2ccc(-c3ccc(C(F)(F)F)cc3)cc2)cc1 [Compound 64]
IC50 [1]: > 10 µM
CC50 [2]: > 50 µM

COc1ccc(-c2cc(C(F)(F)F)nn2-c2ccc(Br)cc2)cc1OC [Compound 251]
IC50 [1]: > 10 µM
CC50 [2]: > 50 µM

CC(C)c1cc(C(F)(F)F)nn1-c1ccc(NC2CCNC2)cc1 (stereo not drawn) [Compound 315]
IC50 [1]: 3.3 µM
CC50 [2]: 25.1 µM

Oc1ccc(CNC2CCN(c3ccc(-n4nc(C(F)(F)F)cc4C4CCCCC4)cc3)C2)cc1 (stereo not drawn) [Compound 362]
IC50 [1]: 2.2 µM
CC50 [2]: 20 µM

O=C(Nc1ccc(-n2cc(C(F)(F)F)nc2-c2ccc(-c3ccccc3)cc2)cc1)c1ccccc1 [Compound 88]
IC50 [1]: > 10 µM
CC50 [2]: > 50 µM

FC(F)(F)c1ccc(-c2ccc(-c3cc(C(F)(F)F)nn3-c3ccc(N4CCNCC4)cc3)cc2)cc1 [Compound 220]
IC50 [1]: 1.3 µM
CC50 [2]: 15.4 µM

COc1ccc(-n2nc(C(F)(F)F)cc2-c2ccc(-c3ccc(C(F)(F)F)cc3)cc2)c(C)c1 [Compound 187]
IC50 [1]: > 10 µM
CC50 [2]: > 50 µM

FC(F)(F)c1cc(-c2ccc(-c3ccc(S(F)(F)(F)(F)F)cc3)cc2)n(-c2ccc(N3CCC(NCc4ccccc4)C3)cc2)n1 (stereo not drawn) [Compound 107]
IC50 [1]: > 10 µM
CC50 [2]: > 50 µM

NCC(=O)Nc1ccc(-n2nc(C(F)(F)F)c3c2CCCC3)cc1 [Compound 331]
IC50 [1]: 9.9 µM
CC50 [2]: 47 µM

O=[N+]([O-])c1ccc(-n2nc(C(F)(F)F)cc2-c2ccc(-c3ccc(S(F)(F)(F)(F)F)cc3)cc2)cc1 [Compound 103]
IC50 [1]: > 10 µM
CC50 [2]: > 50 µM

CC(C)C#Cc1ccc(-c2cc(C(F)(F)F)nn2-c2ccc(N3CCC(NCc4cccc(F)c4)C3)cc2)cc1 (stereo not drawn) [Compound 100]
IC50 [1]: > 10 µM
CC50 [2]: > 50 µM

Oc1ccc(CN2CCC(Oc3ccc(-n4nc(C(F)(F)F)cc4C4CCCCC4)cc3)C2)cc1 (stereo not drawn) [Compound 377]
IC50 [1]: 8.3 µM
CC50 [2]: 14.6 µM

FC(F)(F)c1ccc(-c2cnnn2-c2ccc(Br)cc2)cc1 [Compound 131]
IC50 [1]: > 10 µM
CC50 [2]: 37.2 µM

CC(=O)c1ccc(-c2ccc(C(F)(F)F)cc2)cc1 [Compound 5]
IC50 [1]: 2.3 µM
CC50 [2]: 13.3 µM

FC(F)(F)c1ccc(-c2ccc(-c3cc(C(F)(F)F)nn3-c3ccc(OC4CCNCC4)cc3)cc2)cc1 [Compound 34]
IC50 [1]: 6 µM
CC50 [2]: > 50 µM

Nc1ccc(-c2cc(C(F)(F)F)nn2-c2ccc(-c3ccc(C(F)(F)F)cc3)cc2)cc1 [Compound 152]
IC50 [1]: > 10 µM
CC50 [2]: 43.6 µM

Cc1ccc(-c2cc(C(F)(F)F)nn2-c2ccc(Br)cc2)cc1 [Compound 196]
IC50 [1]: > 10 µM
CC50 [2]: > 50 µM

FC(F)(F)c1cc(C2CCCCC2)n(-c2ccc(OC3CCN(Cc4ccccc4)CC3)cc2)n1 [Compound 371]
IC50 [1]: 8.9 µM
CC50 [2]: > 50 µM

COc1ccc(-c2cc(C(F)(F)F)nn2-c2ccc(NC3CCNC3)cc2)cc1OC (stereo not drawn) [Compound 260]
IC50 [1]: 4.3 µM
CC50 [2]: 13.9 µM

NC1CCN(c2ccc(-n3nc(C(F)(F)F)cc3-c3ccc(F)cc3)cc2)C1 (stereo not drawn) [Compound 248]
IC50 [1]: 2.6 µM
CC50 [2]: 14.4 µM

O=C(CCCCBr)N1CCC(Nc2ccc(-n3nc(C(F)(F)F)cc3-c3ccc(-c4ccc(C(F)(F)F)cc4)cc3)cc2)CC1 [Compound 117]
IC50 [1]: 6.1 µM
CC50 [2]: > 50 µM

CC(C)C#Cc1ccc(-c2cc(C(F)(F)F)nn2-c2ccc(Br)cc2)cc1 [Compound 96]
IC50 [1]: > 10 µM
CC50 [2]: 37.5 µM

Fc1cccc(CN2CC(Nc3ccc(-n4nc(C(F)(F)F)cc4C4CCCCC4)cc3)C2)c1 [Compound 396]
IC50 [1]: 6.1 µM
CC50 [2]: 23.3 µM

CC(C)C#Cc1ccc(-c2cc(C(F)(F)F)nn2-c2ccc(N3CCC(NC(=O)OC(C)(C)C)C3)cc2)cc1 (stereo not drawn) [Compound 97]
IC50 [1]: > 10 µM
CC50 [2]: > 50 µM

CC(=O)NCCCN1CCC(Oc2ccc(-n3nc(C(F)(F)F)cc3C3CCCCC3)cc2)CC1 [Compound 428]
IC50 [1]: 8.9 µM
CC50 [2]: 11.4 µM

O=C(C1CCCCC1)N1CC(Nc2ccc(-n3nc(C(F)(F)F)cc3-c3ccc(-c4ccc(C(F)(F)F)cc4)cc3)cc2)C1 [Compound 71]
IC50 [1]: > 10 µM
CC50 [2]: 8.4 µM

O=C(CNCc1ccccc1)Nc1ccc(-n2nc(C(F)(F)F)cc2C2CCCCC2)cc1 [Compound 353]
IC50 [1]: 4.2 µM
CC50 [2]: 17.5 µM

Oc1ccc(CNC2CCN(c3ccc(-n4nc(C(F)(F)F)cc4-c4ccc(-c5ccc(C(F)(F)F)cc5)cc4)cc3)C2)cc1 (stereo not drawn) [Compound 18]
IC50 [1]: 4 µM
CC50 [2]: 24.5 µM

Cc1nn(-c2ccc(Br)cc2)c2ccccc12 [Compound 132]
IC50 [1]: > 10 µM
CC50 [2]: > 50 µM

FC(F)(F)c1ccc(-c2ccc(-c3cc(C(F)(F)F)nn3-c3ccc(OC4CCN(Cc5ccccc5)C4)cc3)cc2)cc1 (stereo not drawn) [Compound 145]
IC50 [1]: > 10 µM
CC50 [2]: > 50 µM

CC(C)(C)OC(=O)NC1CCN(c2ccc(-n3nc(C(F)(F)F)cc3C(C)(C)C)cc2)C1 (stereo not drawn) [Compound 202]
IC50 [1]: 8.5 µM
CC50 [2]: > 50 µM

CC(=O)NCCNC1CCN(c2ccc(-n3nc(C(F)(F)F)cc3C3CCCCC3)cc2)CC1 [Compound 419]
IC50 [1]: 2.7 µM
CC50 [2]: 21.6 µM

N#Cc1ccc(-n2cc(C(F)(F)F)nc2-c2ccc(-c3ccccc3)cc2)cc1 [Compound 180]
IC50 [1]: > 10 µM
CC50 [2]: > 50 µM

NCC(=O)Nc1ccc(-n2cc(C(F)(F)F)nc2-c2ccc(C(F)(F)F)cc2)cc1 [Compound 409]
IC50 [1]: 8.8 µM
CC50 [2]: 35.2 µM

CC(=O)NCCCCCN1CCC(Oc2ccc(-n3nc(C(F)(F)F)cc3C3CCCCC3)cc2)CC1 [Compound 431]
IC50 [1]: 4.8 µM
CC50 [2]: 22.4 µM
